According to patent US9689021B2, “Method for measuring beta-lactam antibiotics” (priority 2011, dated 2017):

Columns and labels:
[1] = biological target: class C beta-lactamase of Escherichia coli K12 (Escherichia coli, UniProt P00811); conditions: cited from earlier work
[2] = biological target: class C beta-lactamase of Enterobacter cloacae P99 (Enterobacter cloacae, UniProt P05364); conditions: cited from earlier work
[3] = test system: class C beta-lactamase of Enterobacter cloacae 908R; conditions: cited from earlier work
[4] = biological target: class C beta-lactamase of Pseudomonas aeruginosa (Pseudomonas aeruginosa, UniProt P24735); conditions: Pseudomonas aeruginosa, cited from earlier work
[5] = biological target: class C beta-lactamase of Citrobacter freundii (Citrobacter freundii, UniProt P05193); conditions: cited from earlier work
[6] = test system: Oxa-29 class D beta-lactamase; assay: BLAC2 method, nitrocefin (CPR) rate with Oxa-29; assay type: biochemical
Procedure: (§1) The dilution buffer for the enzymes, CPR, standards and samples was 50 mM PBS buffer, pH 7.0.
(§2) The stock solution of CPR was 200 μM. Standards solution of ampicillin and cefuroxime were prepared at 100, 75, 50, 30, 15, 5, 1 and 0 mg/L.
In the method 2 (BLAC2), 99 μl of sample, 99 μl of CPR and 22 μl of enzyme Oxa-29 were mixed. The reaction kinetics was determined by measuring the absorbance at 482 nm as a function of time. Enzyme activity v0 max was adjusted at +/−0.2 ΔAbs482/min.

[7] = biological target: class C beta-lactamase of Serratia marcescens (Serratia marcescens, UniProt P18539); conditions: Serratia marcescens, cited from earlier work
[8] = biological target: class A beta-lactamase (penicillinase) TEM-1 (Escherichia coli, UniProt P62593); assay: BLAC2 method, nitrocefin (CPR) rate with Tem-1; assay type: biochemical; conditions: even at 100 mg/L, fixed CPR
Procedure: In order to determine the concentration of ampicillin in a solution, two beta-lactamases were compared, in particular the class A beta-lactamase (penicillinase) TEM-1 (UniProt: C514X2_ECOLX) and the class C beta-lactamase of Enterobacter cloacae P99 described in Example 1.
The dilution buffer for the enzymes, nitrocefin (CPR), standards and samples was 50 mM PBS buffer, pH 7. The stock solution of CPR was 200 μM. The standard solution of ampicillin was prepared at concentrations of 100, 75, 50, 30, 15, 5, 1 and 0 mg/L.
In the method 2 (BLAC2), 99 μl of sample, 99 μl of CPR and 22 μl of enzyme, i.e. Tem-1 or P99, were mixed. The enzyme activity (v0 max) was adjusted at +/−0.2 ΔAbs482/min.

[9] = biological target: P99 class C beta-lactamase (Enterobacter cloacae, UniProt P05364); assay: BLAC1 method, nitrocefin (CPR) rate with P99 (Example 7); assay type: biochemical
Procedure: as §1, §2
In the method 1 (BLAC1), 10 μl of 50-fold diluted sample, 100 μl of CPR and 100 μl of enzyme P99 were mixed. The reaction kinetics was determined by measuring the absorbance at 482 nm as a function of time. Enzyme activity v0 max was adjusted at +/−0.33 ΔAbs482/min.

Chain of P99 class C beta-lactamase (P05364 21-381): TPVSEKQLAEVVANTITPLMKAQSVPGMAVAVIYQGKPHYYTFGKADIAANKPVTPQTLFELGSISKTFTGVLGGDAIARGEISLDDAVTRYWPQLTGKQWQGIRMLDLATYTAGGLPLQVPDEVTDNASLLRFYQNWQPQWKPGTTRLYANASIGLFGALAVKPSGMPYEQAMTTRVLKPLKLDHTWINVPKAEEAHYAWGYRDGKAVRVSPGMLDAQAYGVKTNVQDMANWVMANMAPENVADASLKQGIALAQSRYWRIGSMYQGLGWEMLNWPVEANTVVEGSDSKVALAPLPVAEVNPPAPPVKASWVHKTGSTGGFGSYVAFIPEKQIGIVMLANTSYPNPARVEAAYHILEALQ
Chain of class C beta-lactamase of Citrobacter freundii (P05193 21-381): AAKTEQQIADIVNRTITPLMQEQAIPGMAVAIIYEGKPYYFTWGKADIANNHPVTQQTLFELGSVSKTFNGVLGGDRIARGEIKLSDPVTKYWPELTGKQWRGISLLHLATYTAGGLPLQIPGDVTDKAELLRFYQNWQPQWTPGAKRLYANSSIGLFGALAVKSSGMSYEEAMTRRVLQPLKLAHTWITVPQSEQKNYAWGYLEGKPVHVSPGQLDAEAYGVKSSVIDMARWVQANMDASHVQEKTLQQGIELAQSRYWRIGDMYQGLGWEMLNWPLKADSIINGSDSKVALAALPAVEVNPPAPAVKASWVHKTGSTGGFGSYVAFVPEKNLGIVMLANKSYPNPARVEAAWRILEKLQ
Chain of class C beta-lactamase of Escherichia coli K12 (P00811 20-377): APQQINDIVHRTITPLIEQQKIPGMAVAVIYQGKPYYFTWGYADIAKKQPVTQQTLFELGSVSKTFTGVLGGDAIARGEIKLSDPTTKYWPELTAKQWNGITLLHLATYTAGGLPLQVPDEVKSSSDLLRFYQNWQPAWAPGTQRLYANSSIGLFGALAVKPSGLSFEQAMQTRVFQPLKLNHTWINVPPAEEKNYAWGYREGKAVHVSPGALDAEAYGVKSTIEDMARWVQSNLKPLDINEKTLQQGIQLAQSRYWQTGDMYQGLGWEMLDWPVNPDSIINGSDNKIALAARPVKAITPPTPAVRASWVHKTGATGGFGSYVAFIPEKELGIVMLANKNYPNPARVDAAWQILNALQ
Chain of class C beta-lactamase of Pseudomonas aeruginosa (P24735 27-397): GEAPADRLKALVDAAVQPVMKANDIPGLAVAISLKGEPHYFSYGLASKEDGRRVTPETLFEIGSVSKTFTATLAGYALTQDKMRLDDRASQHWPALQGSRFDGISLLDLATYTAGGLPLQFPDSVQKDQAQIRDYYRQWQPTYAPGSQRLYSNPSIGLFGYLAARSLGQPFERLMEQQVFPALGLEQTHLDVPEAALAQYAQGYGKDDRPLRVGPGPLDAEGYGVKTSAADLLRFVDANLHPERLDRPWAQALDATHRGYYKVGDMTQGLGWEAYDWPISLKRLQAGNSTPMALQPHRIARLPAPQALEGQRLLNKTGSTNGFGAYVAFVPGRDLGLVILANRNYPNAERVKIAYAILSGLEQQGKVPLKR
Chain of class C beta-lactamase of Serratia marcescens (P18539 22-376): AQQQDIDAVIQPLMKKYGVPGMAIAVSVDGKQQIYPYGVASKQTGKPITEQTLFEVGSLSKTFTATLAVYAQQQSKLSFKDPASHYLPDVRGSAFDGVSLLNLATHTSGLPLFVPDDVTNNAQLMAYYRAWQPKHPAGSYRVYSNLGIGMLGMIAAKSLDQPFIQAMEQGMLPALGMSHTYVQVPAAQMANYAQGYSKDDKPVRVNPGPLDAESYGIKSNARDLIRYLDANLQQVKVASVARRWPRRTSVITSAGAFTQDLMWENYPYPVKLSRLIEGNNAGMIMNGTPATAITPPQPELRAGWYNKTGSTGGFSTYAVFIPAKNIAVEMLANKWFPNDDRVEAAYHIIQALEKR
Chain of class C beta-lactamase of Enterobacter cloacae P99 (P05364 21-381): as the sequence (P05364 21-381) above
Chain of class A beta-lactamase (penicillinase) TEM-1 (P62593 24-286 limits assumed): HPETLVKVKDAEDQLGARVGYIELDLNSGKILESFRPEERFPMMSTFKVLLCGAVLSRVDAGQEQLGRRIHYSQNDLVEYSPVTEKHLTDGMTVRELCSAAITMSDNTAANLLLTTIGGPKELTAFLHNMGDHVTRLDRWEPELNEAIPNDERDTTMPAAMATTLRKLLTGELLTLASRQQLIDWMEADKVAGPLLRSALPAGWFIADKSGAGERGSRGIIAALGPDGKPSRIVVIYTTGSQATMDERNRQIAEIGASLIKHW

Compound: CC1(C)S[C@@H]2[C@H](NC(=O)[C@H](N)c3ccccc3)C(=O)N2[C@H]1C(=O)O [Ampicillin]
- Km [1]: 3.5 µM
- kcat [1]: 4.2 s⁻¹
- Km [2]: 0.4 µM
- kcat [2]: 0.74 s⁻¹
- Km [3]: 0.4 µM
- kcat [3]: 0.53 s⁻¹
- kcat [4]: 4.4 s⁻¹
- Km ([4]; read-out: Km): 0.5 µM
- Km [5]: 0.2 µM
- kcat [5]: 6.5 s⁻¹
- rate of Oxa-29 Class D beta-lactamase ([6]; BLAC2, 1 mg/L): 0.1831 ΔAbs482/min
- residual rate minus 1, (vomax/v0)−1, Oxa-29 ([6]; BLAC2, 1 mg/L): 0.048
- rate of Oxa-29 Class D beta-lactamase ([6]; BLAC2, 5 mg/L): 0.1680 ΔAbs482/min
- residual rate minus 1, (vomax/v0)−1, Oxa-29 ([6]; BLAC2, 5 mg/L): 0.142
- rate of Oxa-29 Class D beta-lactamase ([6]; BLAC2, 15 mg/L): 0.1532 ΔAbs482/min
- residual rate minus 1, (vomax/v0)−1, Oxa-29 ([6]; BLAC2, 15 mg/L): 0.253
- rate of Oxa-29 Class D beta-lactamase ([6]; BLAC2, 30 mg/L): 0.1292 ΔAbs482/min
- residual rate minus 1, (vomax/v0)−1, Oxa-29 ([6]; BLAC2, 30 mg/L): 0.485
- rate of Oxa-29 Class D beta-lactamase ([6]; BLAC2, 50 mg/L): 0.1056 ΔAbs482/min
- residual rate minus 1, (vomax/v0)−1, Oxa-29 ([6]; BLAC2, 50 mg/L): 0.817
- rate of Oxa-29 Class D beta-lactamase ([6]; BLAC2, 75 mg/L): 0.0869 ΔAbs482/min
- residual rate minus 1, (vomax/v0)−1, Oxa-29 ([6]; BLAC2, 75 mg/L): 1.208
- rate of Oxa-29 Class D beta-lactamase ([6]; BLAC2, 100 mg/L): 0.0730 ΔAbs482/min
- residual rate minus 1, (vomax/v0)−1, Oxa-29 ([6]; BLAC2, 100 mg/L): 1.629
- linear regression coefficient a (Y=aX+b), Oxa-29 ([6]; BLAC2, X in mg/L): 0.0159
- linear regression coefficient b (Y=aX+b), Oxa-29 ([6]; BLAC2, X in mg/L): 0.0002
- kcat [7]: 0.46 s⁻¹
- Km ([7]; read-out: Km): 0.01 µM
- inhibition of Tem-1 catalyzed reaction [8]: no inhibition of the reaction was observed
- rate of P99 class C beta-lactamase ([9]; BLAC1, 1 mg/L): 0.3221 ΔAbs482/min
- residual rate minus 1, (vomax/v0)−1, P99 ([9]; BLAC1, 1 mg/L): 0.004
- rate of P99 class C beta-lactamase ([9]; BLAC1, 5 mg/L): 0.3207 ΔAbs482/min
- residual rate minus 1, (vomax/v0)−1, P99 ([9]; BLAC1, 5 mg/L): 0.008
- rate of P99 class C beta-lactamase ([9]; BLAC1, 15 mg/L): 0.3164 ΔAbs482/min
- residual rate minus 1, (vomax/v0)−1, P99 ([9]; BLAC1, 15 mg/L): 0.022
- rate of P99 class C beta-lactamase ([9]; BLAC1, 30 mg/L): 0.3114 ΔAbs482/min
- residual rate minus 1, (vomax/v0)−1, P99 ([9]; BLAC1, 30 mg/L): 0.038
- rate of P99 class C beta-lactamase ([9]; BLAC1, 50 mg/L): 0.3008 ΔAbs482/min
- residual rate minus 1, (vomax/v0)−1, P99 ([9]; BLAC1, 50 mg/L): 0.075
- rate of P99 class C beta-lactamase ([9]; BLAC1, 75 mg/L): 0.2909 ΔAbs482/min
- residual rate minus 1, (vomax/v0)−1, P99 ([9]; BLAC1, 75 mg/L): 0.111
- rate of P99 class C beta-lactamase ([9]; BLAC1, 100 mg/L): 0.2806 ΔAbs482/min
- residual rate minus 1, (vomax/v0)−1, P99 ([9]; BLAC1, 100 mg/L): 0.152
- linear regression coefficient a (Y=aX+b), P99 ([9]; BLAC1, X in mg/L): 0.0015
- linear regression coefficient b (Y=aX+b), P99 ([9]; BLAC1, X in mg/L): 0.0000
